The format of the series is physicochemical. Particulars: temperature in which 50 mg of substance is dissolved in 1 ml of a 1:4 benzyl benzoate/castor oil mixture; lower temperature = better solubility.
`C[C@]12C[C@@H]3c4ccc(-c5cccnc5)cc4C[C@]45CCC(=O)C=C4CC[C@H]([C@H]35)[C@@H]1CC[C@@]2(O)/C=C\CO` [Ref. 2, (Z)-9,11α-dihydro-17β-hydroxy-17α-(3-hydroxy-1-propenyl)-6′-(3-pyridinyl)-4′H-naphtho[3′,2′,1′:10,9,11]estr-4-en-3-one, reference compound]: the Solubility was >>100 °C.

Take `CC(C)C(N)C(=O)OCC=CC1(O)CCC2C3CCC4=CC(=O)CCC4C3C(c3ccc(-c4ccc(C#N)cc4)cc3)CC21C` (stereo not drawn) [Example 39, [S-(Z)]-4′-[17α-[3-[2-Amino-3-methyl-1-oxobutoxy]-1-propenyl]-17β-hydroxy-3-oxoestr-4-en-11β-yl][1,1′-biphenyl]-4-carbonitrile]: the Solubility worked out at 50 °C.

Regarding `CCOCCC(=O)OCC=CC1(O)CCC2C3CCC4=CC(=O)CCC45Cc4cc(-c6ccc(C#N)cc6)ccc4C(CC21C)C35` (stereo not drawn) [Example 11, (Z)-6′-(4-Cyanophenyl)-9,11α-dihydro-17α-[3-(3-ethoxy-1-oxopropoxy)-1-propenyl]-17βhydroxy-4′H-naphtho[3′,2′,1′:10,9,11]estr-4-en-3-one], the Solubility was determined as 100 °C.

For `CC12CC3c4ccc(-c5ccc(C#N)cc5)cc4CC45CCC(=O)C=C4CCC(C35)C1CCC2(O)C=CCOC(=O)CN` (stereo not drawn) [Example 12, (Z)-17α-[3-[(Aminoacetyl)oxy]-1-propenyl]-6′-(4-cyanophenyl)-9,11α-dihydro-17β-hydroxy-4′H-naphtho[3′,2′,1′:10,9,11]estr-4-en-3-one], the Solubility came out at 100 °C.

For `CC(C)C(NC(=O)OC(C)(C)C)C(=O)OCC=CC1(O)CCC2C3CCC4=CC(=O)CCC4C3C(c3ccc(-c4ccc(C#N)cc4)cc3)CC21C` (stereo not drawn) [Example 34, [S-(Z)]-4′-[17α-[3-[2-[[(1,1-Dimethylethoxy)carbonyl]amino]-3-methyl-1-oxobutoxy]-1-propenyl]-17β-hydroxy-3-oxoestr-4-en-11β-yl][1,1′-biphenyl]-4-carbonitrile], the Solubility came out at 50 °C.

On to “[S-(Z)]-6′-(4-Fluorophenyl)-9,11α-dihydro-17α-[3-[2-[[(1,1-dimethylethoxy)carbonyl]amino]-1-oxopropoxy]-1-propenyl]-17β-hydroxy-4′H-naphtho[3′,2′,1′:10,9,11]estr-4-en-3-one [Example 41]”, for which the Solubility turned out to be 23 °C.

On to `COC(=O)CCC(=O)OCC=CC1(O)CCC2C3CCC4=CC(=O)CCC45Cc4cc(-c6ccc(C#N)cc6)ccc4C(CC21C)C35` (stereo not drawn) [Example 9, (Z)-6′-(4-Cyanophenyl)-9,11α-dihydro-17α-[3-(1,4-dioxo-4-methoxybutoxy)-1-propenyl]-17β-hydroxy-4′H-naphtho[3′,2′,1′:10,9,11]estr-4-en-3-one], for which the Solubility came out at 50 °C.

For the compound “(S)-6′-(4-Fluorophanyl)-9,11α-dihydro-17α-[3-[2-[[(1,1-dimethylethoxy) carbonyl]amino]-1-oxopropoxy]-1-propyl]-17β-hydroxy-4′H-naphtho[3′,2′,1′:10,9,11]estr-4-on-3-one [Example 43]”, the Solubility is 23 °C.

Take `CC(NC(=O)OC(C)(C)C)C(=O)OCC=CC1(O)CCC2C3CCC4=CC(=O)CCC4C3C(c3ccc(-c4ccc(C#N)cc4)cc3)CC21C` (stereo not drawn) [Example 33, [S-(z)]-4′-[17α-[3-[2-[[(1,1-Dimethylethoxy)carbonyl]amino]-1-oxopropoxy]-1-propenyl]-17β-hydroxy-3-oxoestr-4-en-11β-yl][1,1′-biphenyl]-4-carbonitrile]: the Solubility came to 50 °C.

Turning to “[S-(Z)]-17α-[3-(2-Amino-3-methyl-1-oxobutoxy)-1-propenyl]-6′-(4-cyanophenyl)-9,11α-dihydro-17β-hydroxy-4′H-naphtho[3′,2′,1′:10,9,11]estr-4-en-3-one [Example 16]”, the Solubility came to 100 °C.

With “(Z)-9,11α-Dihydro-17β-hydroxy-17α-[3-[(1-oxopentyl)oxy]-1-propenyl]-6′-(3-pyridinyl)-4′H-naphtho[3′,2′,1′:10,9,11]estr-4-en-3-one [Example 19]”, the Solubility stood at 50 °C.

“(S)-6′-(4-Fluorophanyl)-9,11α-dihydro-17α-[3-[2-[[(1,1-dimethylethoxy)carbonyl]amino]-1-oxopropoxy]-1-propinyl]-17β-hydroxy-4′H-naphtho[3′,2′,1′;10,9,11]estr-4-en-3-one [Example 42]”: the Solubility was found to be 23 °C.

Take “(Z)-6′-(4-Cyanophenyl)-9,11α-dihydro-17β-hydroxy-17α-[3-[(1-oxononyl)oxy]-1-propenyl]-4′H-naphtho[3′,2′,1′:10,9,11]estr-4-en-3-one [Example 4]”: the Solubility amounted to 23 °C.

`CC(NC(=O)OC(C)(C)C)C(=O)OCC=CC1(O)CCC2C3CCC4=CC(=O)CCC4C3C(c3ccc(N(C)C)cc3)CC21C` (stereo not drawn) [Example 31, [S-(Z)]-11β-[4-(Dimethylamino)phenyl]-17α-[3-[2-[[(1,1-dimethylethoxy)carbonyl]amino]-1-oxopropoxy]-1-propenyl]-17β-hydroxyestr-4-en-3-one]: the Solubility is 23 °C.

With “(Z)-9,11α-Dihydro-17α-[3-(1,4-dioxo-4-ethoxybutoxy)-1-propenyl]-17β-hydroxy-6′-(3-pyridinyl)-4′H-naphtho[3′,2′,1′:10,9,11]estr-4-en-3-one [Example 22]”, the Solubility is 50 °C.

On to `C[C@H](N)C(=O)OC/C=C\[C@]1(O)CC[C@H]2[C@@H]3CCC4=CC(=O)CC[C@@H]4[C@H]3[C@@H](c3ccc(N(C)C)cc3)C[C@@]21C` [Example 30, [S-(Z)]-17α-[3-(2-Amino-1-oxopropoxy)-1-propenyl]-11β-[4-(dimethylamino)phenyl]-17βhydroxyestr-4-en-3-one], for which the Solubility worked out at 50 °C.

For “(Z)-6′-(4-Cyanophenyl)-9,11α-dihydro-17α-hydroxy-17α-[3-[(1-oxododecyl)oxy]-1-propenyl]-4′H-naphtho[3′,2′,1′:10,9,11]estr-4-en-3-one [Example 5]”, the Solubility came out at 23 °C.

For the compound “[S-(Z)]-9,11α-Dihydro-17α-[3-[[[(1,1-dimethylethoxy)carbonyl]amino]acetyloxy]-1-propenyl]-17β-hydroxy-6′-(3-pyridinyl)-4′H-naphtho[3′,2′,1′:10,9,11]estr-4-en-3-one [Example 35]”, the Solubility was found to be 23 °C.

Turning to “[S-(Z)]-9,11α-Dihydro-17α-[3-[2-[[(1,1-dimethylethoxy)carbonyl]amino]-3-methyl-1-oxobutoxy]-1-propenyl]-17βhydroxy-6′-(3-pyridinyl)-4′H-naphtho[3′,2′,1′:10,9,11]estr-4-en-3-one [Example 25]”, the Solubility was 50 °C.

On to `CN(C)c1ccc(C2CC3(C)C(CCC3(O)CCCOC(=O)CNC(=O)OC(C)(C)C)C3CCC4=CC(=O)CCC4=C23)cc1` [Example 36, (S)-11β-[4-(Dimethylamino)phenyl]-17β-[3-[[[(1,1-dimethylethoxy)carbonyl]amino]acetyloxy]propyl]-17α-hydroxy-13α-estra-4,9-dien-3-one], for which the Solubility was 23 °C.

For the compound “(Z)-6′-(4-Cyanophenyl)-9,11α-dihydro-17β-hydroxy-17α-[3-[(1-oxoheptyl)oxy]-1-propenyl]-4′H-naphtho[3′,2′,1′:10,9,11]estr-4-en-3-one [Example 3]”, the Solubility worked out at 23 °C.

For the compound `CC(C)(C)OC(=O)NCC(=O)OCC=CC1(O)CCC2C3CCC4=CC(=O)CCC4C3C(c3ccc(-c4ccc(C#N)cc4)cc3)CC21C` (stereo not drawn) [Example 38, [S-(Z)]-4′-[17α-[3-[[[(1,1-Dimethylethoxy)carbonyl]-amino]acetyloxy]-1-propenyl]-17β-hydroxy-3-oxoestr-4-en-11β-yl][1,1′-biphenyl]-4-carbonitrile], the Solubility was 23 °C.

Regarding “(Z)-6′-(4-Cyanophenyl)-9,11α-dihydro-17α-[3-[[[[(1,1-dimethylethoxy)carbonyl]-amino]acetyl]oxy]-1-propenyl]-17βhydroxy-4′H-naphtho[3′,2′,1′:10,9,11]estr-4-en-3-one [Example 13]”, the Solubility was 50 °C.

“(Z)-9,11α-Dihydro-17α-[3-(3,3-dimethyl-1-oxobutoxy)-1-propenyl]-6′-(3-pyridinyl)-17βhydroxy-4′H-naphtho[3′,2′,1′:10,9,11]estr-4-en-3-one [Example 21]”: the Solubility worked out at 50 °C.

Regarding `CC(NC(=O)OC(C)(C)C)C(=O)OCCCC1(O)CCC2C3CCC4=CC(=O)CCC4=C3C(c3ccc(N(C)C)cc3)CC21C` [Example 27, (S)-11β-[4-(Dimethylamino)phenyl]-17β-[3-[2-[[(1,1-dimethylethoxy)-carbonyl]amino]-1-oxopropoxy]propyl]-17α-hydroxy-13α-estra-4,9-dien-3-one], the Solubility was 23 °C.

For the compound `CC(C)(C)CC(=O)OC/C=C\[C@]1(O)CC[C@H]2[C@@H]3CCC4=CC(=O)CC[C@@]45Cc4cc(-c6ccc(C#N)cc6)ccc4[C@@H](C[C@@]21C)[C@@H]35` [Example 7, (Z)-6′-(4-Cyanophenyl)-9,11α-dihydro-17α-[3-(3,3-dimethyl-1-oxobutoxy)-1-propenyl]-17β-hydroxy-4′H-naphtho[3′,2′,1′:10,9,11]estr-4-en-3-one], the Solubility amounted to 23 °C.

With “[S-(Z)]-17α-[3-(2-Amino-1-oxopropoxy)-1-propenyl]-6′-(4-fluorophenyl)-9,11α-dihydro-17β-hydroxy-4′H-naphtho[3′,2′,1′:10,9,11]estr-4-en-3-one [Example 40]”, the Solubility stood at 50 °C.

Consider “6′-(4-Fluorophenyl)-17α-(3-hydroxypropyl)-9,11α-dihydro-17β-hydroxy-4′H-naphtho[3′,2′,1′:10,9,11]estr-4-en-3-one [Ref. 6, reference compound]”, for which the Solubility was determined as 23 °C.

For “(Z)-9,11α-Dihydro-17β-hydroxy-17α-[3-(1-oxopropoxy)-1-propenyl]-6′-(3-pyridinyl)-4′H-naphtho[3′,2′,1′:10,9,11]estr-4-en-3-one [Example 18]”, the Solubility amounted to 50 °C.

Consider `CC(N)C(=O)OCC=CC1(O)CCC2C3CCC4=CC(=O)CCC45Cc4cc(-c6ccc(C#N)cc6)ccc4C(CC21C)C35` (stereo not drawn) [Example 14, [S-(Z)]-17α-[3-(2-Amino-1-oxopropoxy)-1-propenyl]-6′-(4-cyanophenyl)-9,11α-dihydro-17β-hydroxy-4′H-naphtho [3′,2′,1′:10,9,11]estr-4-en-3-one], for which the Solubility was found to be 23 °C.

Source of the values: patent US6596713B1, “Steroid esters and amides, process for their production and their pharmaceutical use” (priority 1994, dated 2003).
